In turn, `O=C(C=Cc1ccc(-c2ccc3ncnc(Nc4ccc(OCc5cccc(F)c5)c(Cl)c4)c3c2)s1)NOC1CCCCO1` (stereo unspecified) came in with a melting point of 166 °C.

Compound `OCc1cccc(-c2cccc(F)c2)c1-c1cccc(F)c1` had a melting point of 114 to 116 °C.

`Cc1cc(Nc2ccnc(Nc3ccc(C(=O)N(C)C4CCCN(CCCC(F)(F)F)C4)cc3)n2)ccc1F` (stereo unspecified) came in with a melting point of 100 to 110 °C.

`OCc1sccc1C=Cc1csc2ccccc12` returned a melting point of 114 to 115 °C.

`CC(C)(C)OC(=O)N[C@H](Cc1c[nH]c2ccccc12)C(N)=O` had a melting point of 142 to 143 °C.

Turning to `ClCc1ccc(OCc2cn3c(Cl)cccc3n2)cc1`, the melting point was in the range of 114 to 115 °C.

The compound `O=[N+]([O-])c1nccn1C1CCCCC1O` (stereo unspecified) returned a melting point of 141 °C.

Turning to `COC(=O)Cc1c(Cl)nc(C)nc1Cl`, the melting point lay within 67 to 68 °C.

For the compound `CCOC(=O)C(=O)C(C#N)c1cccc(Oc2ccccc2)c1` (stereo unspecified), the melting point fell in the range of 105 to 109 °C.

Compound `Cc1cc(SC(C)C)c(NC(=O)CCCSc2nc3ccccc3s2)c(SC(C)C)n1` yielded a melting point of 116 to 117 °C.

As to `CC(=O)OC1CSC(Oc2cnccc2Br)C(OC(C)=O)C1OC(C)=O` (stereo unspecified), the melting point stood at 153 °C.

In turn, `CON(C)C(=O)c1ccc(-c2ccc(CN(C)C)cc2)cc1` registered a melting point of 42 to 43 °C.

Consider `COc1ccc(N2CCN(C)CC2)c2c1CCC(C(=O)Nc1ccc(N3CCOCC3)cc1)C2` (stereo unspecified), for which the melting point is 230 to 232 °C.

The compound `CC(C)C(=O)N(O)C(C)c1cc(C(C)(C)C)c(O)c(C(C)(C)C)c1` (stereo unspecified) displayed a melting point of 147 to 148 °C.

As for `CNc1nc(-c2ccc(OC)cc2)c(-c2cccnc2)s1`, the melting point fell in the range of 158 to 159 °C.

Compound `COc1ccc(-c2ccc(C)cn2)c(F)c1F` came in with a melting point of 73 °C.

`O=C1CCC(N2Cc3c(OCc4cccc(CN5CCOCC5)c4)cccc3C2=O)C(=O)N1` (stereo unspecified) yielded a melting point of 247 to 249 °C.

`O[C@@H](COc1cccc(-c2noc3ccsc23)c1)CN1CCN(c2n[nH]c3cc(F)ccc23)CC1`: the melting point fell in the range of 97 to 99 °C.

`O=C(Cc1c[nH]c2ccccc12)NCCN1CCC(Nc2nc3ccccc3n2Cc2ccc(F)cc2)CC1` had a melting point of 194 °C.

`CCOC(=O)NS(=O)(=O)c1ccc(C(=O)C=Cc2cc(-c3cc4ccccc4[nH]3)c(OC)cc2OC)cc1` had a melting point of 165 to 175 °C.

For `CC(C)NCCCOc1ccc(N)cc1Cc1ccccc1`, the melting point came out at 41.1 °C.

Compound `O=C(O)CCCNC(=O)CC1=C(n2nc(-c3c(-c4ccccc4)nn4ccccc34)ccc2=O)CCCC1` came in with a melting point of 92.5 to 93 °C.

In turn, `CCCc1nc2c(N)nc3ccc(N)cc3c2s1` came in with a melting point of 190 to 192 °C.

`COc1cc(C=O)ccc1Oc1nc(Nc2cccc(C(=O)O)c2)nc(Oc2ccccc2)n1` showed a melting point of 218 to 220 °C.

`CN1CCN(C2=Nc3ccccc3Cn3cccc32)CC1`: the melting point was in the range of 139 to 141 °C.

Take `COc1ccc(-c2nc(C)cc(O)n2)cc1`: the melting point was 198 to 199 °C.

Consider `O=CNNc1ccc(NC(=O)c2cccc(N=C=S)c2)cc1`, for which the melting point is > 290 °C.

As to `Cc1c(F)c(N2CCC(N)C2)c(F)c2c1c(=O)c(C(=O)O)cn2C1CC1` (stereo unspecified), the melting point is > 300 °C.

As for `CCOc1cc(OCCCc2cn(-c3ccc(C(F)(F)F)cn3)nc2OCC)ccc1CCC(=O)O`, the melting point fell in the range of 96 to 97 °C.

In the case of `CC(C)(C)c1ccccc1N1CCN(C(=O)CCC(=O)NS(C)(=O)=O)CC1`, the melting point fell in the range of 89 to 90 °C.

As for `O=[N+]([O-])C=C1SCCN1Cc1ccc(Cl)nc1`, the melting point fell in the range of 177 to 179 °C.

Compound `Cc1c(C(=O)O)sc2cncc(Oc3ccc(Cl)cc3)c12` had a melting point of 315 to 317 °C.

For the compound `COc1ccccc1-c1nc2cc(NC(=O)c3c(C(=O)N4CCC4)cnn3C)ccn2n1`, the melting point came out at 258 °C.

In turn, `O=C(CCO)N[C@H]1CC[C@H](CCN2CCN(c3nccc4c3CCO4)CC2)CC1` came in with a melting point of 173 °C.

`Cc1nnnn1-c1ccccc1S(N)(=O)=O` returned a melting point of 141 to 148 °C.

`COc1ccc2cc3c(N)nn(-c4ccccc4)c3nc2c1`: the melting point lay in the range of 159 to 160 °C.

Turning to `COC(=O)c1c(C)nc2c(c1N)c1ccccc1n2Cc1ccc(OC)cc1`, the melting point was in the range of 142 to 145 °C.

Take `O=Cc1ccc(OC[C@H]2CO2)cc1`: the melting point was 32 °C.

As to `Cc1nc(-c2c(F)cccc2Cl)nn1-c1ccc(CO)cc1`, the melting point lay within 120 to 122 °C.

As for `CC(C)(O)Cn1cnc2c(N)nc3ccc(Br)cc3c21`, the melting point fell in the range of 197 to 198 °C.

With `Nc1cc(F)c(-c2cccnc2)c(F)c1`, the melting point fell in the range of 141 to 142 °C.

For `Oc1nsc(SCc2ccc(Cl)cc2Cl)n1`, the melting point was found to be 134 °C.

As to `CNC(=O)c1cc(-c2ccc(OC)cc2)n[nH]c1=O`, the melting point was 246 to 247 °C.

For the compound `CCC1=NN=C(CC)NN1`, the melting point was in the range of 118 to 120 °C.

For the compound `CC(C)OC(=O)N1Cc2c(-c3ccc(F)cc3)ncn2-c2ccccc21`, the melting point stood at 160 °C.

The compound `Cc1nc2c3c(ccc2n1C)[C@H]1OCCO[C@@H]1[C@@H](c1ccccc1)O3` gave a melting point of 307 °C.

For `Cc1cc(OCCN2CCC(n3cnc4cccnc43)CC2)nn1-c1ccc(Cl)c(Cl)c1`, the melting point lay within 104 to 107 °C.

Regarding `CCOC(=O)c1ccc(/C=C(\C)c2cc(OC)c3c(c2)C(C)(C)CC3(C)C)cc1`, the melting point lay within 72 to 73 °C.

`CCCc1nc2cncc(C)c2[nH]1` returned a melting point of 173 to 175 °C.

Consider `Cn1ccnc1C1Cn2cc(C(=O)NCc3ccc(Cl)cc3)c(=O)c3cc(CN4CCOCC4)cc(c32)O1` (stereo unspecified), for which the melting point was > 260 °C.

As for `CC1Cc2c(nc3ccc(F)cc3c2C(=O)O)-c2ccc(-c3ccccc3F)cc21` (stereo unspecified), the melting point was 274 to 277 °C.

`CC1(C)CC(=O)C(S(=O)CC2CCCCC2)=C(O)C1` (stereo unspecified): the melting point fell in the range of 77 to 79.5 °C.

As for `O=C(CN1CCN(C(c2ccccc2)c2ccccc2)CC1)c1ccc(OCc2ccccc2)cc1`, the melting point turned out to be 151 °C.

`CC(=O)Oc1ccccc1C(=O)SC(C)C(=O)NCC(=O)O` (stereo unspecified) yielded a melting point of 100 to 102 °C.

The compound `CC(=O)N1c2cc(Cl)cc(Cl)c2C(=O)CC1C(=O)O` (stereo unspecified) displayed a melting point of 212 to 213 °C.

The compound `CN1CCc2c(sc3ncn(CCO)c(=O)c23)C1` yielded a melting point of 163 to 165 °C.

In the case of `O=C1C(=O)N(Cc2ccc(Br)cc2F)c2c(Cl)cccc21`, the melting point was in the range of 164 to 166 °C.

In turn, `OCC1Oc2cccc(F)c2OC1CO` (stereo unspecified) displayed a melting point of 122 to 124 °C.

In the case of `Nc1nc(S(N)=O)c2[nH]cnc2n1` (stereo unspecified), the melting point is > 250 °C.

Compound `Cn1c(C(F)(F)F)cc(=O)n(-c2cc(Oc3ccc4cc(O)ccc4c3)c(C#N)cc2F)c1=O` returned a melting point of 174 °C.

Turning to `COC(=O)c1nc(OC)n2c1CN=C(c1ccccc1Cl)c1cc(Cl)ccc1-2`, the melting point lay in the range of 155 to 160 °C.

Compound `CC(C)c1nc2c([nH]1)c(=S)[nH]c(=O)n2-c1cccc(Cl)c1` gave a melting point of 290 to 293 °C.

As for `COc1cc(-c2csc(N)n2)c(OC)cc1C`, the melting point lay in the range of 191 to 192 °C.

`CCOC(=O)CCCCCCC(=O)c1ccc2cc(OC)ccc2c1` displayed a melting point of 77 to 78 °C.

Regarding `CCCCC(O)c1c(C(C)C)nc(C(C)C)c(CO)c1-c1ccc(F)cc1` (stereo unspecified), the melting point was 166 to 168 °C.

Compound `Cc1cc(I)ccc1O` returned a melting point of 64 to 65 °C.

Take `COC(=O)c1sc(C)c(Br)c1SC(=O)N(C)C`: the melting point fell in the range of 175 to 176 °C.

Regarding `N#Cc1c(NCc2ccccc2)n[nH]c1N`, the melting point was 150 to 152 °C.

Regarding `COC(=O)c1ccc(Cl)c2nc(C(C)(C)C)oc12`, the melting point lay in the range of 130 to 131 °C.

Compound `CCC(Oc1ccc(CCC(=O)c2ccc(-c3ccc(C(F)(F)F)cc3)s2)c(Cl)c1Cl)C(=O)O` (stereo unspecified) returned a melting point of 169 to 171 °C.

With `CC(=O)c1ccc(C2CC(C)(C)CC(C)(C)C2)cc1`, the melting point was found to be 54 °C.

Compound `CC(C)(C)OC(=O)NCCCCn1cnc2c(Cl)nc3ccccc3c21` showed a melting point of 148 to 150 °C.

`O=C(O)C1=Cc2cc(Cl)c(Oc3ccccn3)cc2OC1C(F)(F)F` (stereo unspecified): the melting point was in the range of 234 to 235 °C.

The compound `N#CC(C#N)=C1N(CCCCN2CCCCC2)CCN1CCN1CCCCC1` displayed a melting point of 78 to 79 °C.

In turn, `Cc1c(O)cnn(C(C)(C)C)c1=O` displayed a melting point of 236 to 239 °C.

For the compound `CN1CCC(C2(C(N)=O)Cc3ccc([N+](=O)[O-])cc3C2=O)CC1` (stereo unspecified), the melting point lay in the range of 189 to 190 °C.

In turn, `Clc1ccc(Cn2c(-c3ccc4c(c3)OCO4)nc3ccccc32)s1` had a melting point of 130 to 131 °C.

Regarding `CNc1nc(C(F)(F)F)cc(=O)n1-c1c(Cl)cc(C(F)(F)F)cc1Cl`, the melting point lay in the range of 211 to 214 °C.

Turning to `N#CCOc1cccc2c1c1cccc3c1n2C(c1ccccc1)CO3` (stereo unspecified), the melting point stood at 61 °C.

Consider `CC(=O)N1CCC(Oc2cccc(C(F)(F)F)c2)(c2ccccc2)CC1`, for which the melting point was in the range of 100 to 103 °C.

`COC(=O)c1c(NCc2ccc(OC)c(Cl)c2)nc(N2CCC(O)CC2)nc1N1CCn2ccnc2C1`: the melting point is 191 to 194 °C.

As for `CCN(CC)c1ccc(-c2cc(-c3ccc(C(=O)O)cc3)ccc2CCCNC(C)(C)C)cc1C(C)(C)C`, the melting point came to 273 °C.

`CN1C(=O)Cn2c(CCl)nnc2-c2cc(Cl)ccc21` showed a melting point of 193 to 194 °C.

For the compound `N#CC(=NO)C1CCCOC1` (stereo unspecified), the melting point was 46 to 50 °C.

Consider `COCc1nc2cnc3ccccc3c2n1CC(C)C`, for which the melting point was 96 to 99 °C.

`NC(=O)c1[nH]cnc1OC(=O)C(=Cc1ccccc1)c1ccccc1` gave a melting point of 208 °C.

`O=[N+]([O-])c1cccc(Br)c1CBr` showed a melting point of 61.5 to 63 °C.

In turn, `Cc1ccc(C=CCC(C(=O)C=Cc2ccc(Cl)cc2)c2ccccc2)cc1` (stereo unspecified) registered a melting point of 114 to 118 °C.

The compound `COc1ccc(C(=O)Nc2ccc3c(c2)CCCC3=O)cc1` returned a melting point of 163 to 166 °C.

For the compound `O=C(O)C1Cc2c(c(Cl)cc3c(-c4ccccc4Cl)noc23)O1` (stereo unspecified), the melting point was 220 to 222 °C.

`COCc1[nH]c(=O)[nH]c1C(=O)c1ccc(OC)cc1` displayed a melting point of 211 to 212 °C.

What is called melting point is the temperature of the solid-liquid transition.

The values are drawn from a melting point compilation (Tetko et al.; mined from patent text by program, amines drawn as free bases though some values may be those of a salt).
